Reference: patent publication US20260347373A1, “HETEROCYCLIC COMPOUNDS, COMPOSITIONS THEREOF, AND METHODS OF TREATMENT THEREWITH” (BeOne Medicines I GmbH, priority 2023, published 2026)
Read-outs that look alike come from different tables or passages of the source.

What was measured:
[1] = biological target: WT KRAS (Homo sapiens, UniProt P01116); test: KRAS WT Probe Displacement Assay (TR-FRET, GDP-loaded); type: binding; details: KRAS WT, read-out: KRAS^WT Probe Displacement Assay IC50
Text: (§1) The synthetic routes of probe 1 and 2, which have been disclosed in PCT/CN2022/070676, are hereby incorporated herein.

[2] = biological target: KRAS G12D (Homo sapiens, UniProt P01116, G12D); test: KRAS G12D Probe Displacement Assay (TR-FRET, GDP-loaded); type: binding
Text: as §1

[3] = KRAS G12D, read-out: KRAS^G12D Probe Displacement Assay IC50

Sequence of WT KRAS (P01116 1-188 isoform P01116-2): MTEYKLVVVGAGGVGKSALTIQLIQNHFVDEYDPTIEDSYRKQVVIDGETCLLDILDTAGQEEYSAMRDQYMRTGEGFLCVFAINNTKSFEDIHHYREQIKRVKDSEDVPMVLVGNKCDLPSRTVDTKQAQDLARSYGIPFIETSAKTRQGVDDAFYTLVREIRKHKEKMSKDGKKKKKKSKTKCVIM
Sequence of KRAS G12D (P01116 1-188 isoform P01116-2 G12D): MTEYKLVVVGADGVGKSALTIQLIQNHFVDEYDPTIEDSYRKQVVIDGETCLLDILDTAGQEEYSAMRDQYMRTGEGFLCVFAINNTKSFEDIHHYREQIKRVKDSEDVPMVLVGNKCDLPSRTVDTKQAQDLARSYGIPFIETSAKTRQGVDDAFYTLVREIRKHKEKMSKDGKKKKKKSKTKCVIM

SMILES | IC50 [1] [nM] | IC50 [2, 3] [nM] | IC50 ([2]; KRAS^G12D Probe Displacement Assay IC50, KRAS G12D) [nM]
Cc1cc(N)cc(-c2nc3c4c(nc(OC[C@@]56CCCN5CC(F)(F)C6)nc4c2F)N2C[C@H]4CC[C@H](N4)[C@H]2CCO3)c1C(F)(F)F [Example 33, 3-((6aR,7S,10R)-13-(((S)-2,2-difluorotetrahydro-1H-pyrrolizin-7a(5H)-yl)methoxy)-1-fluoro-5,6,6a,7,8,9,10,11-octahydro-4-oxa-3,11a,12,14,15-pentaaza-7,10-methanocyclohepta[4,5]cycloocta [1,2,3-de]naphthalen-2-yl)-5-methyl-4-(trifluoromethyl)aniline] | 3 to 1000 | < 0.3 | –
Cc1cc(N)cc(-c2nc3c4c(nc(OCC5(C)CN(C)CC/C5=C\F)nc4c2F)N2C[C@H]4CC[C@H](N4)[C@H]2CCO3)c1C(F)(F)F (single isomer, unassigned) [Example 237] | 0.3 to 3 | – | –
Cc1cc(N)cc(-c2nc3c4c(nc(OCC5(CN(C)C)CC5)nc4c2F)N2C[C@H]4CC[C@H](N4)[C@H]2CCO3)c1C(F)(F)F [Example 56, 3-((6aR,7S,10R)-13-((1-((dimethylamino)methyl)cyclopropyl)methoxy)-1-fluoro-5,6,6a,7,8,9,10,11-octahydro-4-oxa-3,11a,12,14,15-pentaaza-7,10-methanocyclohepta[4,5]cycloocta [1,2,3-de]naphthalen-2-yl)-5-methyl-4-(trifluoromethyl)aniline] | 3 to 1000 | < 0.3 | –
Cc1cc(N)cc(-c2nc3c4c(nc(OCC5(CN6C[C@H]7C[C@H]7[C@H]6CO)CC5)nc4c2F)N2C[C@H]4CC[C@H](N4)[C@H]2CCO3)c1C(F)(F)F [Example 98, ((1R,2S,5S)-3-((1-((((6aR,7S,10R)-2-(5-amino-3-methyl-2-(trifluoromethyl)phenyl)-1-fluoro-5,6,6a,7,8,9,10,11-octahydro-4-oxa-3,11a,12,14,15-pentaaza-7,10-methanocyclohepta [4,5]cycloocta[1,2,3-de]naphthalen-13-yl)oxy)methyl)cyclopropyl)methyl)-3-azabicyclo [3.1.0]hexan-2-yl) methanol] | 3 to 1000 | < 0.3 | –
Cc1cc(N)cc(-c2nc3c4c(nc(OCC5(CN6CC7CC7C6)CC5(F)F)nc4c2F)N2C[C@H]4CC[C@H](N4)[C@H]2CCO3)c1C(F)(F)F (single isomer, unassigned) [Example 29] | 0.3 to 3 | – | –
Cc1cc(N)cc(-c2nc3c4c(nc(OCC5(CN6CCC7(C6)CC7(F)F)CC5)nc4c2F)N2C[C@H]4CC[C@H](N4)[C@H]2CCO3)c1C(F)(F)F (single isomer, unassigned) [Example 139] | 3 to 1000 | – | –
Cc1cc(N)cc(-c2nc3c4c(nc(OC[C@]5(CN(C)C)CC5(F)F)nc4c2F)N2C[C@H]4CC[C@H](N4)[C@H]2CC(C)O3)c1C(F)(F)F (single isomer, unassigned) [Example 249] | 3 to 1000 | – | –
Cc1cc(N)cc(-c2nc3c4c(nc(OCC5(C)CN(CC6CC6)CC/C5=C\F)nc4c2F)N2C[C@H]4CC[C@H](N4)[C@H]2CCO3)c1C(F)(F)F (single isomer, unassigned) [Example 239] | 0.3 to 3 | – | –
Cc1cc(N)cc(-c2nc3c4c(nc(OC[C@H]5COC[C@@H]5N(C)C)nc4c2F)N2C[C@H]4CC[C@H](N4)[C@H]2CCO3)c1C(F)(F)F [Example 14, (3R,4R)-4-((((6aR,7S,10R)-2-(5-amino-3-methyl-2-(trifluoromethyl)phenyl)-1-fluoro-5,6,6a,7,8,9,10,11-octahydro-4-oxa-3,11a,12,14,15-pentaaza-7,10-methanocyclohepta[4,5]cycloocta [1,2,3-de]naphthalen-13-yl)oxy)methyl)-N,N-dimethyltetrahydrofuran-3-amine] | – | 3 to 1000 | –
Cc1cc(N)cc(-c2nc3c4c(nc(O[C@@H]5CCOC[C@H]5N(C)C)nc4c2F)N2C[C@H]4CC[C@H](N4)[C@H]2CCO3)c1C(F)(F)F [Example 7] | – | 3 to 1000 | –
COC1CN(CC2(COc3nc4c5c(nc(-c6cc(N)cc(C)c6C(F)(F)F)c(F)c5n3)OCC[C@@H]3[C@@H]5CC[C@H](CN43)N5)CC2(F)F)C1 (single isomer, unassigned) [Example 21] | – | – | 0.3 to 3
